One data set has as its system LAPC4 cells. Nature of the data set: Cell proliferation (DNA content, DAPI) in LAPC4 cells. The note with it: 3 nM DHT, PP 100 nM, HH 100 nM, BiC 1 μM, seven days. The data set is classed as cell-based, human. From the text: (§1) LN-AR cells were created by retroviral infection of a high-expressing AR vector into LNCaP cells, and proliferate independent of androgen in cell culture, unlike their parental line (Chen, C. D., et al., Molecular determinants of resistance to antiandrogen therapy. Nat Med, 2004. 10(1): p. 33-9). HEK293 cells were used as a control. Cells were transferred to charcoal-stripped media two days before they were split and plated in quadruplicate at a density of approximately 20,000 cells/well in 48-well plates. […] Media were changed every day, using a single preparation to ensure consistent compound concentrations. Proliferation was determined by measuring the DNA content of the cells in each well. Each day, the cells in four wells were fixed in 100% cold methanol, followed by staining for 5 min at RT with 0.2 ng/mL 4′,6-diamidino-2-phenylindole (DAPI) in PBS. The cells were washed once in PBS, then read on a fluorescence plate reader using 365/439 excitation/emission wavelengths. LAPC4 and LNCaP cells proliferated to a much greater degree in the presence of DHT, while LN-AR cells proliferated in the presence and absence of DHT.

In another data set the test system is HEK293 cells. Nature of the data set: Cell proliferation (DNA content, DAPI) in control HEK293 cells. The data set is classed as cell-based. The note with it: PP 100 nM, HH 100 nM, BiC 1 μM.
Excerpt: as §1

The nature of data set [1]: Pharmacokinetics in mice, drug levels by mass spectrometry. The data set is classed as in vivo.
Excerpt: Serum samples were obtained at fixed time intervals, and the drug levels determined by mass spectrometry.
For the next data set, the target named is T1, human androgen receptor (Homo sapiens, UniProt P10275).
T1 construct: expressed in transfected cells; host or cells: HEK293 and LAPC4 stably expressing C-AR-Y; HEK293 transiently transfected with native AR
T1 sequence (P10275 1-920): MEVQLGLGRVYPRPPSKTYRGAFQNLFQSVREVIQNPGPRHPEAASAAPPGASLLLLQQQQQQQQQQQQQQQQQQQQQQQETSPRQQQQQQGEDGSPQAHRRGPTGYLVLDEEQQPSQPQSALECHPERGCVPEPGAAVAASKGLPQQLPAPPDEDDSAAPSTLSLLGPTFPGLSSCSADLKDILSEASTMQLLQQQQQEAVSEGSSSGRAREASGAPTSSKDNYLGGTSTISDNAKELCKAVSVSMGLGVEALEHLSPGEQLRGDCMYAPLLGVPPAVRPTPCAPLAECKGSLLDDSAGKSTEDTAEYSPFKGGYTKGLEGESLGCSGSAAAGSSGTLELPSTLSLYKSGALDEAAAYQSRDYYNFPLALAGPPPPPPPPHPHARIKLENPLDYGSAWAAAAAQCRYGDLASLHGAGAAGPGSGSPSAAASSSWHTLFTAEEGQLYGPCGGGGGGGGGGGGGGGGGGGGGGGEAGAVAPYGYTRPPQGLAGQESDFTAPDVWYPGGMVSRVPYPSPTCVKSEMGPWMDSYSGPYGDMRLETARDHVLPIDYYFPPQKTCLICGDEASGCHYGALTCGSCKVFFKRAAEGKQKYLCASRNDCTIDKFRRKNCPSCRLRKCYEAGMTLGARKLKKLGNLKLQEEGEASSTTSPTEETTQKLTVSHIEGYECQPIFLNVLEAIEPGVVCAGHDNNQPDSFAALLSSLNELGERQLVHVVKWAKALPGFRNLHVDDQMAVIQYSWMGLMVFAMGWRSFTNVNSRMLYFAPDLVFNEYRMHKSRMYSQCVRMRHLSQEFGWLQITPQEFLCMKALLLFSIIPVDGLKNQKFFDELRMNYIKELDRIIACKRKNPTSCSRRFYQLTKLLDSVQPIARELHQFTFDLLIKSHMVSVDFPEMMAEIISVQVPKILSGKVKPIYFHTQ
As to the kind of experiment: Screen of 1040 FDA-approved drugs and natural products for AR antagonists (MMTV-luciferase transcription assay and C-AR-Y FRET conformation assays). The data set is classed as cell-based. Conditions: test compounds at 10 μM, 10 nM DHT, 24 hours; validated by dose-response. As for the experimental part: A library assembled by the NINDS was screened. The library consisted of 1040 FDA-approved drugs and natural products. A basic strategy to select and compare compounds from each of the primary screens was established (FIG. 1).
The transcription assay was conducted by transfecting 10 cm plates of HEK293 cells with plasmids encoding MMTV-luciferase, SV40-renilla luciferase, and native AR. […] FRET is fluorescence resonance energy transfer between cyan and yellow fluorescent protein derivatives (CFP, YFP) that are fused to the amino and carboxyl termini of the human androgen receptor. When ligand activates the receptor, a conformational change takes place that brings the CFP and YFP into close proximity, thereby allowing FRET to occur. This spectroscopic change is detected using a fluorescence plate reader.
For the transcription assay, transfected cells were pooled before being plated into 96-well dishes with the test compounds at 10 μM. […] Cell and compound transfers were accomplished with a liquid handling robot. Cells were cultured for 24 hours in the presence of 10 nM DHT and the test compounds. After 24 hours, cells were either lysed by freeze-thaw (transcription assay), or fixed in 4% paraformaldehyde for reading on the FPR (FRET assays). Each compound was tested in duplicate in the initial screen.
The compounds were sorted on the basis of anti-androgen effects. […] This eliminated situations in which one test gave a strong response, and the replicate had none. […] For the FRET assays, toxic compounds were easily detected because of their effect on raw CFP and YFP signal, and compounds that reduced this signal below two standard deviations were eliminated.
The top 50 compounds identified in each primary assay were then tested in the other two assays.

Molecules are shown by their SMILES. Counter-ions that a name gives are not always drawn.

In the case of `Cc1nccc2c1[nH]c1cc(O)ccc12` [HH, harmol hydrochloride], the “Inhibition of cell growth” value in the data set with LAPC4 cells was “not effective”. In the data set with HEK293 cells, the Non-specific growth inhibition result is “Neither compound exhibited non-specific growth inhibition”. The “Plasma concentration” value in data set [1] (mice, single IP injection 5 mg/kg, 1 hr) amounted to 5.0 ng/mL. Also, the “Clearance / half-life (in words)” value in data set [1] (wild-type FVB mice, single intraperitoneal injection) is on record as “rapidly cleared”. Moreover, the “Anti-androgen activity in screen” value on human androgen receptor is reported as “previously unrecognized anti-androgen activity”.

The record behind these values is patent US8580773B2, “Small-molecule inhibitors of the androgen receptor” (The Regents of the University of California, priority 2008, dated 2013).
